Test results published in patent EP1769804B1, “hPTH(1-34) for use in preventing or reducing the incidence or severity of vertebral and / or non vertebral fracture in a male human” (priority 1998, dated 2012).
Marks after values point to notes of the source that are not given here.

Experiments:
[1] = system: Ovariectomized Primates; assay: Biomechanical material properties of beam specimens from femur diaphysis; type: in vivo, Macaca fascicularis; details: for E (Young's modulus) / u (toughness) / εa / σa: femur diaphysis beam, mean ± SEM
From the text: (§1) Biomechanical tests were done on lumbar vertebrae L-3 to L-4, the femur neck, humerus midshaft, and on a cortical bone specimen machined from the femur diaphysis (measures defined in Table 2). Conventional static and dynamic histomorphometry were done (measures described in Table 6) on the humerus midshaft, lumbar vertebra L-2, femoral neck, femur midshaft, the radius midshaft and distal radius. Initial statistical analyses compared all groups to vehicle-treated ovariectomized controls. The data is suitable for additional exploratory analyses to examine dose dependency, effects of withdrawal, interactions between outcomes, and changes in time by methods known to those of skill in the art. All assays were conducted and determined by methods known in the art.

[2] = system: Ovariectomized Primates; assay: Biomechanical measure of strength of femur neck; type: in vivo, Macaca fascicularis; set-up: Fa, Proximal femur neck: unit not given here; details: for Fa, Proximal femur neck: mean ± SEM
From the text: as §1

[3] = system: Ovariectomized Primates; assay: Cortical histomorphometry of the humerus midshaft; type: in vivo, Macaca fascicularis; details: mean ± SEM
From the text: as §1
(§2) For certain experimental subjects, cortical bone of the humerus was examined by histomorphometry and by polarized Fourier transform infrared microscopy. The Fourier transform infrared microscopy was conducted by an adaptation of known methods for such microscopy.

[4] = system: ovariectomized cynomolgus primates; assay: Bone mass by DXA and pQCT in the primate study; type: in vivo, Macaca fascicularis
From the text: (§3) All animals were euthanized after 18 months.

[5] = system: ovariectomized cynomolgus primates; assay: Iliac biopsy histomorphometry (cancellous bone); type: in vivo, Macaca fascicularis
From the text: as §3

[6] = system: cortical bone of the humerus; assay: Histomorphometry and polarized Fourier transform infrared microscopy of humerus cortical bone; type: in vivo, Macaca fascicularis
Method: as §2

[7] = system: post-menopausal women; assay: Clinical trial: number and severity of vertebral fractures (spine x-ray); type: in vivo, Humans
[8] = cynomolgus monkey, in vivo
Method: Serum and urinary samples were taken 24 hours after vehicle or rhPTH(1-34) injection at 3-month intervals. A sparse sampling design of 5 monkeys in each rhPTH(1-34)-treated group was used for pharmacokinetics, with sampling (spanning 0 to 240 minutes each time) at baseline, 7, 11, and 17 months.

[9] = compared to ovariectomized controls
[10] = PTH1-W: withdrawal after 1 µg/kg for 12 months
[11] = PTH5-W: withdrawal after 5 µg/kg for 12 months
[12] = 20 µg/day PTH compared to placebo
[13] = 40 µg/day PTH compared to placebo
[14] = all PTH treated patients compared with placebo

## teriparatide [rhPTH(1-34)]
[1]; [9]
  material properties of beam specimens machined from the femoral diaphysis: did not alter
[1]; [10]
  E (Young's modulus): 16.6 ± 0.6 Gpa
  u (toughness): 5.3 ± 0.4 mJ/m^3
  εa: 0.034 ± 0.002
  σa: 214 ± 6 Mpa
[1]; PTH1: 1 µg/kg for 18 months
  E (Young's modulus): 17.1 ± 0.4 Gpa
  u (toughness): 6.1 ± 0.4 mJ/m^3
  εa: 0.036 ± 0.002
  σa: 222 ± 4 Mpa
[1]; [11]
  E (Young's modulus): 15.3 ± 0.6^a Gpa
  u (toughness): 6.1 ± 0.4 mJ/m^3
  εa: 0.038 ± 0.002
  σa: 208 ± 6 Mpa
[1]; PTH5: 5 µg/kg for 18 months
  E (Young's modulus): 15.4 ± 0.6^a Gpa
  u (toughness): 5.4 ± 0.4 mJ/m^3
  εa: 0.034 ± 0.002
  σa: 206 ± 6 Mpa
[2]; [10]
  Fa, Proximal femur neck: 1258 ± 52^a
[2]; PTH1: 1 µg/kg for 18 months
  Fa, Proximal femur neck: 1235 ± 43^a
[2]; [11]
  Fa, Proximal femur neck: 1213 ± 42
[2]; PTH5: 5 µg/kg for 18 months
  Fa, Proximal femur neck: 1362 ± 30^a
[2]; [9]
  improvement of strength in the femur neck (fu): up to 12%
[3]; [10]
  Ac.F (Activation frequency): 3.05 ± 2.15^a cycles/year
  B.Ar (Bone area, the total area within the periosteal surface): 54.94 ± 6.55 mm^2
  BFR/BS.Ec (bone formation rate, endocortical surface referent): 14.89 ± 10.32 µm/day
  BFR/BS.Ps (Bone formation rate, periosteal surface referent): 3.60 ± 3.84^a µm/day
  BFR/BV (Bone formation rate, bone volume referent): 4.39 ± 3.48^a %/year
  Ct.Ar (Cortical area): 38.10 ± 4.83 mm^2
  FP (Formation period): 64.94 ± 11.99 days
  L.On.N/Ct.A (Number of fluorochrome labeled osteons per unit cortical area): 0.50 ± 0.36^a #/mm^2
  MAR (Mineral apposition rate, intracortical): 1.06 ± 0.27 µm/day
  MAR.Ec (Mineral apposition rate, endocortical surface): 0.66 ± 0.16 µm/day
  MAR.Ps (mineral apposition rate, periosteal surface): 0.54 ± 0.15^a µm/day
  MS/BS.Ec (mineralizing endocortical surface normalized to total endocortical surface): 11.74 ± 14.41^a %
  MS/BS.Ps (Mineralizing periosteal surface normalized to total periosteal surface): 3.86 ± 4.83^a %
  Me.Ar (Medullary cavity area): 16.84 ± 3.74 mm^2
  O.Wi (Osteoid width): 3.96 ± 0.83 µm
  Po (Porosity, the percentage of bone area occupied by spaces): 2.23 ± 1.60%
  Rs.N/Ct.A (number of resorption spaces per unit cortical area): 0.12 ± 0.07^a #/mm^2
  W.Wi (Osteonal wall width): 63.12 ± 17.35 µm
  omt (Osteoid maturation time): 3.86 ± 0.74 days
[3]; PTH1: 1 µg/kg for 18 months
  Ac.F (Activation frequency): 7.69 ± 4.96 cycles/year
  B.Ar (Bone area, the total area within the periosteal surface): 54.22 ± 5.97 mm^2
  BFR/BS.Ec (bone formation rate, endocortical surface referent): 18.14 ± 13.95 µm/day
  BFR/BS.Ps (Bone formation rate, periosteal surface referent): 8.53 ± 10.54 µm/day
  BFR/BV (Bone formation rate, bone volume referent): 19.23 ± 5.93 %/year
  Ct.Ar (Cortical area): 37.61 ± 3.86 mm^2
  FP (Formation period): 63.44 ± 10.02 days
  L.On.N/Ct.A (Number of fluorochrome labeled osteons per unit cortical area): 1.26 ± 0.71 #/mm^2
  MAR (Mineral apposition rate, intracortical): 0.98 ± 0.12^a µm/day
  MAR.Ec (Mineral apposition rate, endocortical surface): 0.66 ± 0.15 µm/day
  MAR.Ps (mineral apposition rate, periosteal surface): 0.89 ± 0.95 µm/day
  MS/BS.Ec (mineralizing endocortical surface normalized to total endocortical surface): 25.19 ± 17.14%
  MS/BS.Ps (Mineralizing periosteal surface normalized to total periosteal surface): 8.59 ± 5.73%
  Me.Ar (Medullary cavity area): 16.61 ± 3.77 mm^2
  O.Wi (Osteoid width): 3.66 ± 0.67 µm
  Po (Porosity, the percentage of bone area occupied by spaces): 4.65 ± 4.78%
  Rs.N/Ct.A (number of resorption spaces per unit cortical area): 0.28 ± 0.18 #/mm^2
  W.Wi (Osteonal wall width): 61.36 ± 7.79 µm
  omt (Osteoid maturation time): 3.76 ± 0.70 days
[3]; [11]
  Ac.F (Activation frequency): 2.05 ± 1.46^a cycles/year
  B.Ar (Bone area, the total area within the periosteal surface): 58.16 ± 8.79^a mm^2
  BFR/BS.Ec (bone formation rate, endocortical surface referent): 12.73 ± 16.33^a µm/day
  BFR/BS.Ps (Bone formation rate, periosteal surface referent): 5.79 ± 4.05 µm/day
  BFR/BV (Bone formation rate, bone volume referent): 2.21 ± 1.73^a %/year
  Ct.Ar (Cortical area): 40.83 ± 5.80^a mm^2
  FP (Formation period): 88.63 ± 52.90 days
  L.On.N/Ct.A (Number of fluorochrome labeled osteons per unit cortical area): 0.38 ± 0.26^a #/mm^2
  MAR (Mineral apposition rate, intracortical): 0.85 ± 0.28^a µm/day
  MAR.Ec (Mineral apposition rate, endocortical surface): 0.63 ± 0.17 µm/day
  MAR.Ps (mineral apposition rate, periosteal surface): 0.82 ± 0.15 µm/day
  MS/BS.Ec (mineralizing endocortical surface normalized to total endocortical surface): 8.93 ± 15.39^a %
  MS/BS.Ps (Mineralizing periosteal surface normalized to total periosteal surface): 2.30 ±3.76^a %
  Me.Ar (Medullary cavity area): 17.34 ± 6.05 mm^2
  O.Wi (Osteoid width): 3.76 ± 0.83 µm
  Po (Porosity, the percentage of bone area occupied by spaces): 6.40 ± 4.22^a %
  W.Wi (Osteonal wall width): 63.82 ± 8.31 µm
  omt (Osteoid maturation time): 5.07 ± 2.65 days
[3]; PTH5: 5 µg/kg for 18 months
  Ac.F (Activation frequency): 8.70 ± 3.97 cycles/year
  B.Ar (Bone area, the total area within the periosteal surface): 55.81 ± 6.24 mm^2
  BFR/BS.Ec (bone formation rate, endocortical surface referent): 34.04 ± 19.01 µm/day
  BFR/BS.Ps (Bone formation rate, periosteal surface referent): 8.99 ± 5.81 µm/day
  BFR/BV (Bone formation rate, bone volume referent): 12.93 ± 5.94^a %/year
  Ct.Ar (Cortical area): 40.96 ± 4.30^a mm^2
  FP (Formation period): 81.97 ± 95.63 days
  L.On.N/Ct.A (Number of fluorochrome labeled osteons per unit cortical area): 1.45 ± 0.47^a #/mm^2
  MAR (Mineral apposition rate, intracortical): 1.03 ± 0.23 µm/day
  MAR.Ec (Mineral apposition rate, endocortical surface): 0.75 ± 0.14 µm/day
  MAR.Ps (mineral apposition rate, periosteal surface): 0.66 ± 0.17 µm/day
  MS/BS.Ec (mineralizing endocortical surface normalized to total endocortical surface): 40.47 ± 24.68^a %
  MS/BS.Ps (Mineralizing periosteal surface normalized to total periosteal surface): 11.00 ± 9.63%
  Me.Ar (Medullary cavity area): 14.85 ± 4.72^a mm^2
  O.Wi (Osteoid width): 3.94 ± 1.13 µm
  Po (Porosity, the percentage of bone area occupied by spaces): 6.78 ± 4.23^a %
  Rs.N/Ct.A (number of resorption spaces per unit cortical area): 0.43 ± 0.26^a #/mm^2
  W.Wi (Osteonal wall width): 65.29 ± 9.43 µm
  omt (Osteoid maturation time): 6.45 ± 13.85 days
[4]; 18 months, DXA
  increase of whole body bone mineral content (BMC) compared to baseline: up to 6%
[4]; Fig. 1
  overall skeletal bone mass, expressed as total body BMC: increased significantly
[4]; [9]
  proximal tibia BMC and BMD: increased BMC and BMD
[4]; pQCT
  BMD of the midshaft or distal radius: did not alter
[4]; radius midshaft, PTH5 group
  increase of cross-sectional area of the midshaft: 7%
[5]; iliac biopsy
  mineralization, activation frequency, or remodeling periods: did not affect
[5]; iliac biopsy at 15 months, compared to ovariectomized
  cancellous bone area: increased cancellous bone area
[6]
  bone quality (crystallites): improved bone quality by replacing old bone (large crystallites) with young bone
[7]; 20 µg/day PTH (n=444)
  Number of patients with 2 or more new vertebral fractures: 5
  Number of patients with new moderate to severe fractures: 4
  Number of patients with new vertebral fractures: 22
  percentage of patients with 2 or more new vertebral fractures: (1.1%)
  percentage of patients with new moderate to severe fractures: (0.9%)
  percentage of patients with new vertebral fractures: (5.0%)
[7]; [12]
  reduction in number of patients with moderate to severe vertebral fractures: 90%
  reduction in number of patients with multiple vertebral fractures: 77%
  reduction in number of patients with vertebral fractures: 65%
[7]; 40 µg/day PTH (n=434)
  Number of patients with 2 or more new vertebral fractures: 3
  Number of patients with new moderate to severe fractures: 9
  Number of patients with new vertebral fractures: 19
  percentage of patients with 2 or more new vertebral fractures: (0.7%)
  percentage of patients with new moderate to severe fractures: (2.1%)
  percentage of patients with new vertebral fractures: (4.4%)
[7]; [13]
  reduction in number of patients with moderate to severe vertebral fractures: 78%
  reduction in number of patients with multiple vertebral fractures: 86%
  reduction in number of patients with vertebral fractures: 69%
[7]; [14]
  reduction in number of patients with moderate to severe vertebral fractures: 84%
  reduction in number of patients with multiple vertebral fractures: 81%
  reduction in number of patients with vertebral fractures: 67%
[7]; summary
  reduction in the number of patients with moderate or severe fractures: 78%
  reduction of the number of patients with prior vertebral fractures who suffered new vertebral fractures: more than 66%
  reduction of the number of patients with prior vertebral fractures who suffered new, multiple vertebral fractures: more than 78%
[8]
  pharmacokinetic measures: did not change with time
